Test: MR imaging of uptake, retention and clearance in CCI mouse model of TBI
Type: in vivo, mice
Procedure: 8-10 Week old C57/B6 mice were induced with 4% isoflurane gas via inhalation and maintained at 1.5-2%, then placed upon a warm heating pad set to 100° F. to maintain body temperature. Prior to surgery, hair on the top of the skull was trimmed and epilated via shears and Nair (Church and Dwight Co., Inc., Princeton, NJ). Lidocaine (0.05 mL at a 5 mg/mL) and bupivacaine (0.05 mL at 0.3 mg/mL) were injected subcutaneously under the scalp. After 5 min to allow anesthetic to absorb, a midline incision was made in the skin from lambda to bregma. Fascia and skin were retracted and a small hole drilled using a high speed surgical drill over the left frontoparietal cortex (3 mm anterior and 2 mm left from lambda), and a 3 mm circular cranial window created using rongeurs. A pneumatically-operated controlled cortical impactor (CCI) with a 3 mm convex tip was used to impact the brain normal to the dura surface at a depth of 1 mm at 6 m/s and remained in the brain for 150 ms. Incisions were closed using skin glue and mice given an intraperitoneal injection of buprenorphine (0.1 mg/kg). Mice were monitored under a heat lamp until awake.
Three consecutive T1w images were acquired with RARE (rapid acquisition with refocused echoes) pulse sequence: TR/TE=667.5/4.5 ms, matrix=256×128, field of view (FOV)=25.6×25.6 mm, number of averages (NA)=1, 15 slices and 1 mm slice thickness. […] A series of T1w images were acquired using a fast low angle shot (FLASH) pulse sequence. There were three—four consecutive T1w sequences acquired both pre and post injection—one set of three pre injection acquisitions and then three sets of four post injection acquisitions with an additional set post the following day (4 post imaging total). These images utilized a 3 dimensional (D) FLASH sequence: TR/TE=20/3.87 ms, flip angle=20°, matrix=160×160×30, FOV=25.6×25.6 mm, NA=2, 30 slices and 3D slab of 15 mm. For the first group of mice, T2w images (TR/TE=5500/50 ms) were selected from RARE pulse sequence with (TR=214.3, 500, 1000, 1500, 3000 and 5500 ms and TE=10, 30, 50, 70 and 90 ms, matrix=256×128, FOV=25.6×25.6 mm, NA=1, 2 slices and 1 mm slice thickness. For the second group of mice, T2w images (TR/TE=4000/37.7 ms) were selected from multi-slice and multi-echo imaging conducted with TR/TE=4000/6.3−75.4 ms (12 echoes with 6.3 ms spacing), matrix=256×128, NA=1, 15 slices and 1 mm slice thickness.

Row | Molecule | accumulation / contrast enhancement in damaged brain (T1 contrast) (injected 3 hrs post-CCI) | blood half-life (injected post-CCI, intravascular MR signal) [h] | accumulation / contrast enhancement in damaged brain (T1 contrast) (mouse, in vivo) | accumulation in damaged brain (T1 contrast) (mouse, in vivo) | blood (circulation) half-life (mouse, in vivo) | half-life in damaged brain (resident half-life) (mouse, in vivo) | half-life in the ventricles (mouse, in vivo) [h] | retention in damaged brain (mouse, in vivo) | retention within damaged brain (mouse, in vivo)
1 | O=C([O-])CN(CCN(CC(=O)[O-])CC(=O)O)CCN(CC(=O)[O-])CC(=O)O.[Gd+3] [Gd-DTPA, reference compound] | displayed contrast enhancement in damaged brain | 0.6 | – | – | – | – | – | – | –
2 | poly(MEMcoO950coMNHS) [ORP] | – | – | showed accumulation in damaged brain after 18 hrs | accumulates in the damaged region of brain | about 1.1 hrs | greater than 14 hrs | ~40 | at least 18 hrs | at least 24 hrs

Source: patent US12329773B2, “Oxygen reactive polymers for treatment of traumatic brain injury” (University of Washington, priority 2015, dated 2025)
